Results: US20240398757A1 (COCRYSTAL PHARMA, INC., priority 2022, published 2024)

Target: T1, SARS2 protease (Severe acute respiratory syndrome coronavirus 2, UniProt P0DTD1)
T1 construct: SARS2 protease was added to a final concentration of 30 nM
Assay: SARS-CoV-2 protease inhibition assay (SARS2 FRET protease assay)
Type: biochemical
Details: IC50 (μM), SARS2 protease 30 nM, peptide substrate 1.3 μM, 120 minutes at 37° C., compounds 20 μM to 0.075 nM

Row | Structure (SMILES) | IC50
1 | CCC(CC)(c1cccc(Cl)c1)C(OC(=O)N[C@@H](CC(C)C)C(=O)N[C@H](C=O)C[C@@H]1CCNC1=O)c1ccc(Cl)cc1 (some centres unmarked) [Compound A46] | 1.74 µM
2 | CCNC(=O)C(=O)[C@H](C[C@@H]1CCNC1=O)NC(=O)[C@H](CC1CCCCC1)NC(=O)OC(c1ccccc1)C(C)(C)c1cccc(F)c1 (some centres unmarked) [Compound A130] | 0.088 µM
3 | O=C(N[C@@H](CC1CCCCC1)C(=O)N[C@@H](C[C@@H]1CCCNC1=O)C(=O)C(=O)NC1CC1)OC(c1ccccc1)C(F)(F)c1cccc(Cl)c1 (some centres unmarked) [Compound A129] | 0.13 µM
4 | CCOP(=O)(OCC)C(O)[C@H](C[C@@H]1CCNC1=O)NC(=O)[C@H](CC1CCCCC1)NC(=O)O[C@H](c1ccccc1)C(F)(F)c1cccc(Cl)c1 (some centres unmarked) [Compound A293] | 16.1 µM
5 | O=C(N[C@@H](CCC(F)F)C(=O)N[C@@H](C[C@@H]1CCNC1=O)C(=O)C(=O)NC1CC1)O[C@@H](c1ccccc1)C(F)(F)c1cccc(Cl)c1 [Compound A227, (S)-2-(3-chlorophenyl)-2,2-difluoro-1-phenylethyl ((S)-1-(((S)-4-(cyclopropylamino)-3,4-dioxo-1-((S)-2-oxopyrrolidin-3-yl)butan-2-yl)amino)-5,5-difluoro-1-oxopentan-2-yl)carbamate] | 0.412 µM
6 | CCCC[C@H](NC(=O)OC(c1ccn(C)n1)C(F)(F)c1cccc(Cl)c1)C(=O)N[C@@H](C[C@@H]1CCNC1=O)C(=O)C(=O)NCC (some centres unmarked) [Compound A313] | 0.139 µM
7 | CCCCC[C@H](NC(=O)OC(c1ccccc1)C(F)(F)c1cccc(Cl)c1)C(=O)N[C@H](C=O)C[C@@H]1CCNC1=O (some centres unmarked) [Compound A19] | 0.007 µM
8 | CCCC[C@H](NC(=O)OC(c1ccccc1)C1(c2cccc(Cl)c2)CC1)C(=O)N[C@H](C=O)C[C@@H]1CCNC1=O (some centres unmarked) [Compound A90] | 0.04 µM
9 | CC(C)C[C@H](NC(=O)O[C@H](c1ccc(Cl)cc1)C1(c2cccc(Cl)c2)CC1)C(=O)N[C@H](C=O)C[C@@H]1CCNC1=O [Compound A45] | 0.02 µM
10 | CCCC[C@H](NC(=O)O[C@H](c1ccccc1)C(F)(F)c1cccc(Cl)c1)C(=O)N[C@H](C=O)C[C@@H]1CCCNC1=O [Compound A146] | 0.038 µM
11 | CCCC[C@H](NC(=O)OC(c1ccncc1)C(F)(F)c1cccc(Cl)c1)C(=O)N[C@H](C=O)C[C@@H]1CCNC1=O (stereo partly drawn) [Compound A256, 2-(3-Chlorophenyl)-2,2-difluoro-1-(pyridin-4-yl)ethyl ((S)-1-oxo-1-(((S)-1-oxo-3-((S)-2-oxopyrrolidin-3-yl)propan-2-yl)amino)hexan-2-yl)carbamate] | 0.001 µM
12 | O=C(N[C@@H](CC1CCCCC1)C(=O)N[C@@H](C[C@H]1CCNC1=O)C(=O)C(=O)NC1CC1)OC(c1ccccc1)C(F)(F)c1cccc(Cl)c1 (some centres unmarked) [Compound A169] | 1.25 µM
13 | CCCCC[C@H](NC(=O)O[C@@H](c1ccccc1)C(F)(F)c1cccc(Cl)c1)C(=O)N[C@H](C=O)C[C@@H]1CCNC1=O [Compound A151] | 0.0002 µM
14 | CCC(CC)(c1cccc(Cl)c1)C(OC(=O)N[C@@H](CC(C)C)C(=O)N[C@H](C=O)C[C@@H]1CCNC1=O)c1ccc(F)c(F)c1 (some centres unmarked) [Compound A18] | 0.01 µM
15 | CC(C)C[C@H](NC(=O)OC(c1ccccc1)C(F)(F)c1cccc(Cl)c1)C(=O)N[C@H](C#N)C[C@@H]1CCNC1=O (some centres unmarked) [Compound A41] | 2.29 µM
16 | CCCC[C@H](NC(=O)O[C@@H](c1ccccc1)C(F)(F)c1cccc(F)c1)C(=O)N[C@H](C=O)C[C@@H]1CCNC1=O [Compound A143] | 0.004 µM
17 | CCCC[C@H](NC(=O)CC(O)(c1ccccc1)C(C)(C)c1cccc(Cl)c1)C(=O)N[C@H](C=O)C[C@@H]1CCNC1=O (stereo partly drawn) [Compound A260, (2S)-2-(4-(3-chlorophenyl)-3-hydroxy-4-methyl-3-phenylpentanamido)-N—((S)-1-oxo-3-((S)-2-oxopyrrolidin-3-yl)propan-2-yl)hexanamide] | 0.002 µM
18 | CC(C)C[C@H](NC(=O)O[C@H](c1cccc(Cl)c1)C1(c2cccc(Cl)c2)CC1)C(=O)N[C@H](C=O)C[C@@H]1CCNC1=O [Compound A38] | 0.0034 µM
19 | CCCC[C@H](NC(=O)OC(c1ccncc1)C(F)(F)c1cccc(Cl)c1)C(=O)N[C@@H](C[C@@H]1CCNC1=O)C(=O)C(=O)NC1CC1 (stereo partly drawn) [Compound A257, 2-(3-Chlorophenyl)-2,2-difluoro-1-(pyridin-4-yl)ethyl ((S)-1-(((S)-4-(cyclopropylamino)-3,4-dioxo-1-((S)-2-oxopyrrolidin-3-yl)butan-2-yl)amino)-1-oxohexan-2-yl)carbamate] | 0.0001 µM
20 | CC(C)C[C@H](NC(=O)O[C@H](c1ccccc1)C(C)(C)c1cccc(Cl)c1)C(=O)N[C@@H](C[C@@H]1CCNC1=O)C(=O)C(=O)NC1CC1 [Compound A5] | 2.79 µM
21 | O=C[C@H](C[C@@H]1CCNC1=O)NC(=O)[C@H](CC1CCCCC1)NC(=O)O[C@@H](c1ccccc1)C(F)(F)c1cccc(Cl)c1 [Compound A125] | 0.0042 µM
22 | O=C[C@H](C[C@@H]1CCNC1=O)NC(=O)[C@H](Cc1ccccc1)NC(=O)OC(C1CCCCC1)C(F)(F)c1cccc(Cl)c1 (some centres unmarked) [Compound A254] | 0.002 µM

Row | Structure (SMILES) | IC50
23 | CC(C)C[C@H](NC(=O)OC(c1ccccc1)C(F)(F)c1cccc(C2CCC2)c1)C(=O)N[C@@H](C[C@@H]1CCNC1=O)C(=O)C(=O)NC1CC1 (some centres unmarked) [Compound A315] | 0.051 µM
24 | CCCC[C@H](NC(=O)OC(c1cccc(F)c1)C1(c2cccc(Cl)c2)CC1)C(=O)N[C@@H](C[C@@H]1CCNC1=O)C(=O)C(=O)NC1CC1 (some centres unmarked) [Compound A105] | 0.51 µM
25 | CC(C)C[C@H](NC(=O)O[C@@H](c1ccc(F)cc1)C(C)(C)c1cccc(Cl)c1)C(=O)N[C@H](C=O)C[C@@H]1CCNC1=O [Compound A202] | 0.021 µM
26 | CC(C)C[C@H](NC(=O)O[C@@H](c1ccccc1)C(C)(C)c1cccc(Cl)c1)C(=O)N[C@@H](C[C@@H]1CCNC1=O)C(=O)C(=O)NC1CC1 [Compound A4] | 0.8 µM
27 | CCNC(=O)C(=O)[C@H](C[C@@H]1CCNC1=O)NC(=O)[C@H](Cc1ccccc1)NC(=O)OCCCc1ccccc1 [Compound A276, 3-Phenylpropyl ((S)-1-(((S)-4-(ethylamino)-3,4-dioxo-1-((S)-2-oxopyrrolidin-3-yl)butan-2-yl)amino)-1-oxo-3-phenylpropan-2-yl) carbamate] | 4.15 µM
28 | CCCC[C@H](NC(=O)OC(c1ccccc1)C(F)(F)c1cccc(Cl)c1)C(=O)NC(CN1CCNC1=O)C(=O)C(=O)NC1CC1 (some centres unmarked) [Compound A306] | 4.41 µM
29 | CCCC[C@H](NC(=O)O[C@@H](c1ccc(F)cc1)C(F)(F)c1cccc(Cl)c1)C(=O)N[C@H](C=O)C[C@@H]1CCNC1=O [Compound A159] | 0.003 µM
30 | CCCC[C@H](NC(=O)OC(c1ccn(C)n1)C(F)(F)c1cccc(Cl)c1)C(=O)N[C@H](C=O)C[C@@H]1CCNC1=O (some centres unmarked) [Compound A305] | 0.0004 µM
31 | CC(C)C[C@H](NC(=O)OC(c1cccc(Cl)c1)C1(c2cccc(Cl)c2)CCNCC1)C(=O)N[C@@H](C[C@@H]1CCNC1=O)C(=O)C(=O)NC1CC1 (some centres unmarked) [Compound A83] | 0.51 µM
32 | O=C(N[C@@H](Cc1ccccc1)C(=O)N[C@@H](C[C@@H]1CCNC1=O)C(=O)C(=O)NC1CC1)OC(c1ccccc1)C(F)(F)c1cccc(Cl)c1 (stereo partly drawn) [Compound A241, 2-(3-chlorophenyl)-2,2-difluoro-1-phenylethyl ((S)-1-(((S)-4-(cyclopropylamino)-3,4-dioxo-1-((S)-2-oxopyrrolidin-3-yl)butan-2-yl)amino)-1-oxo-3-phenylpropan-2-yl)carbamate] | 0.614 µM
33 | CC(C)C[C@H](NC(=O)OC(c1cccc(Cl)c1)C1(c2cccc(Cl)c2)CCC1)C(=O)N[C@@H](C[C@@H]1CCNC1=O)C(=O)C(=O)NC1CC1 (some centres unmarked) [Compound A16] | 0.38 µM
34 | CCCCCOC(=O)N[C@@H](CC(C)C)C(=O)N[C@@H](C[C@@H]1CCNC1=O)C(=O)C(=O)NC1CCCCC1 [Compound A24] | 21.4 µM
35 | O=C(N[C@@H](CC1CCCCC1)C(=O)N[C@@H](C[C@@H]1CCNC1=O)C(O)S(=O)(=O)O)O[C@@H](c1ccccc1)C(F)(F)c1cccc(F)c1 (some centres unmarked) [Compound A133] | 0.002 µM
36 | CC(C)C[C@H](NC(=O)O[C@H](c1ccccc1)C(F)(F)c1cccc(Cl)c1)C(=O)N[C@H](C=O)C[C@@H]1CCNC1=O [Compound A79] | 0.013 µM
37 | O=C[C@H](C[C@@H]1CCCNC1=O)NC(=O)[C@H](CC1CCCCC1)NC(=O)O[C@@H](c1ccccc1)C(F)(F)c1cccc(Cl)c1 [Compound A154] | 0.334 µM
38 | O=C(N[C@@H](CC1CC1)C(=O)N[C@@H](C[C@@H]1CCNC1=O)C(=O)C(=O)NC1CC1)O[C@@H](c1ccccc1)C(F)(F)c1cccc(Cl)c1 [Compound A176] | 0.002 µM
39 | CCCCC[C@H](NC(=O)O[C@H](c1ccccc1)C(F)(F)c1cccc(Cl)c1)C(=O)N[C@H](C=O)C[C@@H]1CCNC1=O [Compound A218] | 0.001 µM
40 | CCC[C@H](NC(=O)O[C@@H](c1ccccc1)C(F)(F)c1cccc(F)c1)C(=O)N[C@H](C=O)C[C@@H]1CCNC1=O [Compound A166] | 0.0025 µM
41 | CC(C)C[C@H](NC(=O)O[C@@H](C(C)C)C(F)(F)c1cccc(-c2ccccc2)c1)C(=O)N[C@H](C=O)C[C@@H]1CCNC1=O [Compound A272, (S)-1-([1,1′-biphenyl]-3-yl)-1,1-difluoro-3-methylbutan-2-yl ((S)-4-methyl-1-oxo-1-(((S)-1-oxo-3-((S)-2-oxopyrrolidin-3-yl)propan-2-yl)amino)pentan-2-yl)carbamate] | 0.001 µM
42 | CCNC(=O)C(=O)[C@H](C[C@@H]1CCNC1=O)NC(=O)[C@H](CC1CCCC1)NC(=O)O[C@@H](c1ccccc1)C(F)(F)c1cccc(Cl)c1 [Compound A220, (S)-2-(3-chlorophenyl)-2,2-difluoro-1-phenylethyl ((S)-3-cyclopentyl-1-(((S)-4-(ethylamino)-3,4-dioxo-1-((S)-2-oxopyrrolidin-3-yl)butan-2-yl)amino)-1-oxopropan-2-yl)carbamate] | 0.183 µM
43 | CCNC(=O)C(=O)[C@H](C[C@@H]1CCNC1=O)NC(=O)[C@H](CC1CCCCC1)NC(=O)O[C@H](c1ccccc1)C(F)(F)c1cccc(Cl)c1 [Compound A134] | 1.18 µM
44 | O=C[C@H](C[C@H]1CCNC1=O)NC(=O)[C@H](CC1CCCCC1)NC(=O)OC(c1ccccc1)C(F)(F)c1cccc(Cl)c1 (some centres unmarked) [Compound A161] | 0.582 µM
